Values of other authors, collected in patent US20230082870A1, “COMPOSITION FOR CALCIUM SUPPLEMENTATION” (ABIOGEN PHARMA S.P.A., priority 2017, published 2023).

Conditions: state of the art

Structure (SMILES): O=C([O-])CC(O)(CC(=O)[O-])C(=O)[O-].O=C([O-])CC(O)(CC(=O)[O-])C(=O)[O-].[Ca+2].[Ca+2].[Ca+2] [calcium citrate]
- Bioavailability, higher than that of calcium carbonate: 20-30%
